Measurements taken from patent US11970497B2, “Tricyclic AKR1C3 dependent KARS inhibitors” (Novartis AG, priority 2019, dated 2024).

Tests used:
[1] = tested on: H460 (NRF2 pathway mutant cell line with high AKR1C3 expression); assay: In vitro cell proliferation assay (CellTiter-Glo), H460; format: cell-based; settings: Homo sapiens, NCI-H460, 72 h; H460 cells, 3 days, CellTiter-Glo, top concentration 10 μM; read-out: H460 Qualified absolute AC50
Summary of the method: (§1)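 Luminescent CellTiter-Glo readout after 3-day compound exposure at 37 °C; 8-point 1:5 series, top 10 μM final. Seeding: 800 cells/well for H460, 2000 cells/well for Hara, RPMI-1640 plus 10% FBS. AC50 and percentage activity derived after normalizing to DMSO (1%) and MG132 (30 μM) controls.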

[2] = tested on: Hara (NRF2 pathway wild type cell line with low AKR1C3 expression); assay: In vitro cell proliferation assay (CellTiter-Glo), Hara; format: cell-based; settings: 72 h; Hara cells, 3 days, CellTiter-Glo, top concentration 10 μM; read-out: HARA Qualified absolute AC50
Summary of the method: as §1

| SMILES | AC50 [1] [nM] | AC50 [2] [nM] |
| --- | --- | --- |
| C/C=C/CN1c2ccc(F)cc2C(=O)CC12CCN(C(=O)NCc1ccc(F)cc1)CC2 [Example 85, (E)-1′-(but-2-en-1-yl)-6′-fluoro-N-(4-fluorobenzyl)-4′-oxo-3′,4′-dihydro-1′H-spiro[piperidine-4,2′-quinoline]-1-carboxamide] | 371 | 9490 |
| CN1c2ccc(F)cc2C(=O)CC12CCN(C(=O)NCc1ccc(F)cc1NCCO)CC2 [Example 86, 6′-fluoro-N-(4-fluoro-2-((2-hydroxyethyl)amino)benzyl)-1′-methyl-4′-oxo-3′,4′-dihydro-1′H-spiro[piperidine-4,2′-quinoline]-1-carboxamide] | 379 | > 10000 |
| Nc1ccc(CNC(=O)N2CCC3(CC2)CC(=O)c2cc(F)ccc2N3)cc1Cl [Example 87, N-(4-amino-3-chlorobenzyl)-6′-fluoro-4′-oxo-3′,4′-dihydro-1′H-spiro[piperidine-4,2′-quinoline]-1-carboxamide] | 388 | > 10000 |
| Nc1ccc(CNC(=O)N2CCC3(CC2)CC(=O)c2cc(F)ccc2N3)cc1 [Example 89, N-(4-aminobenzyl)-6′-fluoro-4′-oxo-3′,4′-dihydro-1′H-spiro[piperidine-4,2′-quinoline]-1-carboxamide] | 436 | > 10000 |
| CN1c2ccc(F)cc2C(=O)CC12CCN(C(=O)NCc1ccc(F)c(NCCO)c1F)CC2 [Example 91, N-(2,4-difluoro-3-((2-hydroxyethyl)amino)benzyl)-6′-fluoro-1′-methyl-4′-oxo-3′,4′-dihydro-1′H-spiro[piperidine-4,2′-quinoline]-1-carboxamide] | 451 | > 10000 |
| CC(O)c1cc(CNC(=O)N2CCC3(CC2)CC(=O)c2cc(F)ccc2N3C)ccc1F (stereo not drawn) [Example 92, 6′-fluoro-N-(4-fluoro-3-(1-hydroxyethyl)benzyl)-1′-methyl-4′-oxo-3′,4′-dihydro-1′H-spiro[piperidine-4,2′-quinoline]-1-carboxamide] | 467 | > 10000 |
| Cn1ncc(Cl)c1CNC(=O)N1CCC2(CC1)CC(=O)c1cc(F)ccc1N2 [Example 93, N-((4-chloro-1-methyl-1H-pyrazol-5-yl)methyl)-6′-fluoro-4′-oxo-3′,4′-dihydro-1′H-spiro[piperidine-4,2′-quinoline]-1-carboxamide] | 5730 | > 10000 |
| C[C@@H](O)CNC(=O)c1cc(CNC(=O)N2CCC3(CC2)CC(=O)c2cc(F)ccc2N3C)ccc1F [Example 94, (R)-6′-fluoro-N-(4-fluoro-3-((2-hydroxypropyl)carbamoyl)benzyl)-1′-methyl-4′-oxo-3′,4′-dihydro-1′H-spiro[piperidine-4,2′-quinoline]-1-carboxamide] | 471 | 9490 |
| Nc1cc(CNC(=O)N2CCC3(CC2)CC(=O)c2cc(F)ccc2N3)ccc1F [Example 95, N-(3-amino-4-fluorobenzyl)-6′-fluoro-4′-oxo-3′,4′-dihydro-1′H-spiro[piperidine-4,2′-quinoline]-1-carboxamide] | 485 | > 10000 |
| Nc1ccc(CNC(=O)N2CCC3(CC2)CC(=O)c2cc(F)ccc2N3)c(F)c1 [Example 98, N-(4-amino-2-fluorobenzyl)-6′-fluoro-4′-oxo-3′,4′-dihydro-1′H-spiro[piperidine-4,2′-quinoline]-1-carboxamide] | 498 | > 10000 |
| COCCNc1cc(CNC(=O)N2CCC3(CC2)CC(=O)c2cc(F)ccc2N3)ccc1F [Example 99, 6′-fluoro-N-(4-fluoro-3-((2-methoxyethyl)amino)benzyl)-4′-oxo-3′,4′-dihydro-1′H-spiro[piperidine-4,2′-quinoline]-1-carboxamide] | 507 | > 10000 |
| O=C(NCC(F)(F)F)c1cc(CNC(=O)N2CCC3(CC2)CC(=O)c2cc(F)ccc2N3)ccc1F [Example 101, 6′-fluoro-N-(4-fluoro-3-((2,2,2-trifluoroethyl)carbamoyl)benzyl)-4′-oxo-3′,4′-dihydro-1′H-spiro[piperidine-4,2′-quinoline]-1-carboxamide] | 528 | > 10000 |
